According to patent US9624211B2, “Anti-cancer compounds” (Board of Regents, The University of Texas System, priority 2013, dated 2017):
Like-named read-outs stand apart in the source and are kept apart here.

How the values were obtained:
[1] = test system: Skp2 Trp97Ala and Asp98Ala mutants; assay: In vivo p27 ubiquitination assay, Skp2 Trp97Ala and Asp98Ala mutants; assay type: cell-based
Description: (§1) In vivo and in vitro ubiquitination assays were performed as described with modification (Lin et al., 2009; Yang et al., 2009). For in vitro ubiquitination assay, recombinant GST-Akt proteins were expressed, purified and eluted from the bacterial lysates of BL21 competent cells. Flag-Skp2 SCF complex were expressed in 293T cells, immunoprecipitated by anti-Flag antibody, and eluted from Protein A/G beads using Flag peptides according to manufacturers' standard procedures. Purified GST-Akt and Flag-SCF proteins were incubated for 3 h at 37° C. in the absence and presence of Skp2 inhibitor. After incubation, protein mixtures were diluted in E1A Buffer and the supernatant fluid was precleared with Protein A/G beads for 1 h, and immunoprecipitated overnight with anti-Flag antibody, after which Protein A/G beads were added for an additional 1 h. Beads were washed 4 times with E1A Buffer. Proteins were eluted in SDS-sample buffer and subjected to immunoblotting analysis. For in vivo ubiquitination assay, 293T cells were transfected with the indicated plasmids and cultured in the absence or presence of Skp2 inhibitor for 48 h. 6 h before harvest, cells were cultured in the presence of MG132. After cell harvest, cells were lysed by the denatured buffer (6M guanidine-HCl, 0.1M Na2HPO4/NaH2PO4, 10 mM imidazole). […]

Skp2 Trp127Ala mutant = target: T1, Skp2 Trp127Ala mutant (Homo sapiens, UniProt Q13309, W127A); assay: In vivo p27 ubiquitination assay, Skp2 Trp127Ala mutant; assay type: cell-based
T1 construct: expressed in transfected cells; host or cells: 293T
T1 sequence (Q13309 whole entry W127A): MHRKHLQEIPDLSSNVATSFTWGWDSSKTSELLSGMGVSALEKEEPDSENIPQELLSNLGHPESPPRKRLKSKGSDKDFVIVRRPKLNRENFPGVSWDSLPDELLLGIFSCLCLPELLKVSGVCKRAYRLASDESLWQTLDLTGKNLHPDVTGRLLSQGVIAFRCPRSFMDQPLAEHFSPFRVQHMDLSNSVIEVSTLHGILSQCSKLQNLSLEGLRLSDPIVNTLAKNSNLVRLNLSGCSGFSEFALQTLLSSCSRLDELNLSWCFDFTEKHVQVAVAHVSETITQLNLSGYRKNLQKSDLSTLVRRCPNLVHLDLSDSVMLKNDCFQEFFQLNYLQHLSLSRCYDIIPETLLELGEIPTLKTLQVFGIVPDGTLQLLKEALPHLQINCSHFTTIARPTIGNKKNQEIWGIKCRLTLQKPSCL
Description: as §1

ERK activation = ERK activation after EGF, immunoblotting; assay type: cell-based
WT Skp2 = target: T2, WT Skp2 (Homo sapiens, UniProt Q13309); assay: In vitro binding of compound to GST-Skp2 by LC-MS/MS; details: preexisting Skp2-Skp1 complex
T2 construct: made in house
T2 sequence (Q13309 whole entry): as the sequence (Q13309 whole entry W127A) above, with A127W counted along it
Description: To corroborate this notion, the in vitro binding assay was performed to compare the binding affinity of compound #25 to WT Skp2 and Skp2 mutants (Trp97Ala and Asp98Ala) using LC-MS/MS analysis. Of note, since the nature of recombinant Skp2 protein was unstable in the absence of Skp1 (Li et al., 2005), the GST-Skp2 WT, GST-Skp2 Trp97Ala and GST-Skp2Asp98Ala mutants subjected to LC-MS/MS analysis were co-expressed, purified and preformed complex with Skp1 (FIG. 10A).

FBW7 = target: T3, FBW7 (Homo sapiens, UniProt Q969H0); assay: In vivo ubiquitination assay, FBW7 substrates; assay type: cell-based; details: in the presence of proteasome inhibitor
T3 construct: expressed in transfected cells; host or cells: 293T
T3 sequence (Q969H0 whole entry, species assumed): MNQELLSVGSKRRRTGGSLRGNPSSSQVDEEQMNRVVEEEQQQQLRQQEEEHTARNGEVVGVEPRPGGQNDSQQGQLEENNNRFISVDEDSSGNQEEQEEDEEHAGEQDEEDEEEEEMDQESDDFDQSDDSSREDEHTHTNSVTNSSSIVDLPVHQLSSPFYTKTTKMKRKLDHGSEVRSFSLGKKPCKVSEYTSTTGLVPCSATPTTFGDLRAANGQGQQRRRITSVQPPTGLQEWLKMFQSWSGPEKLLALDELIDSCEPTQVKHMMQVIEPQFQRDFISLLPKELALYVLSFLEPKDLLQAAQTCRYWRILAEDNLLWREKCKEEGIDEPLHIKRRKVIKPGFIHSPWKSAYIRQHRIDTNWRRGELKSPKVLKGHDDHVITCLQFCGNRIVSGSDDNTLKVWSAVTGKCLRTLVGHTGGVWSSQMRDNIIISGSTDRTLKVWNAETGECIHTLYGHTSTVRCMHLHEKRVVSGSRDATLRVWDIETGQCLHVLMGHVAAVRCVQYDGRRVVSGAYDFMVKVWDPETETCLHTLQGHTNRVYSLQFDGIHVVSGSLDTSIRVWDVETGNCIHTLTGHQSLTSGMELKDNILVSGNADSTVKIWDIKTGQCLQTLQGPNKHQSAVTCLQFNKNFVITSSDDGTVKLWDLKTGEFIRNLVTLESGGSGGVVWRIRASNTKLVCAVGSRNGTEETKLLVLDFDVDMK
Description: as §1

PC-3 cells = assay: Cell survival assay, PC-3; assay type: cell-based, human
Description: (§2) For Skp2 inhibitor administration, 5-10×10^3 of cells with were seeded in 12 wells in triplicate, 24 h later, treated with compound #25 (refreshed every two days). Four days later, cells were harvested, stained with trypan blue, and viable cells were counted directly under the microscope using hemocytometer. For doxorubicin treatment, 8×10^3 of PC3 cells with were seeded in 12 wells in triplicate, 24 h later, treated with various dose of compound #25 in the presence or absence of 10 nM doxorubicin or 25 ng/ml cyclophosphamide for four and three days, respectively (refreshed every two days). After treatment, cells were harvested, stained with trypan blue, and viable cells were counted directly under the microscope using hemocytometer. Cellular senescence was determined by assessing SA-b-gal activity using senescence detection kit according to manufacturers' standard procedures (Calbiochem).

[2] = test system: normal prostate epithelial PNT1A cells; assay: Cell survival assay, PNT1A; assay type: cell-based
Description: as §2

[3] = test system: tumorigenic lung cancer cells; assay: Cell survival assay, lung cancer cells and normal fibroblasts; assay type: cell-based
Description: as §2

H3255 (lung) = assay: Cell survival assay, H3255; assay type: cell-based, human
Description: as §2

H3299 (lung) = assay: Cell survival assay, H3299; assay type: cell-based, human
Description: as §2

[4] = test system: p53-deficient prostate cancer cells; assay: Cell senescence assay (SA-b-gal); assay type: cell-based
Description: as §2

prostate CSCs = assay: ALDH+ cancer stem cell population by FACS; assay type: cell-based
Description: FIGS. 6A-G. Skp2 inactivation diminishes cancer stem cell properties and heightens cancer cell sensitivity to chemotherapy. (FIG. 6A) Populations of ALDH^+ cells were determined by FACS analysis in PC3 cells treated with vehicle or compound #25. (FIG. 6B) Populations of ALDH^+ cells were determined by FACS analysis in PC3 cells with control or Skp2 knockdown. (FIG. 6C) Populations of ALDH^+ cells were determined by FACS analysis in PC3 cells with control or Skp2 knockdown treated with vehicle or compound #25. (FIG. 6D) Populations of ALDH^+ cells were determined by FACS analysis in PC3 cells with DMSO or LY294002. (FIG. 6E) Populations of ALDH^+ cells were determined by FACS analysis in LNCaP cells treated with DMSO, LY294002 or compound #25. (FIGS. 6F-G) Prostate sphere-formation assay in PC3 (FIG. 6F) and LNCaP (FIG. 6G) cells treated with DMSO, LY294002 or compound #25. Results are presented as mean values±S.D. ** indicates p<0.01.

PC3 xenograft tumors = assay: PC3 tumor xenograft in nude mice; assay type: in vivo
Description: Nude mice bearing PC3 or A549 xenograft tumors (around 100 mm^3) were administrated with vehicle or 80 mg/kg compound #25 on a daily basis. Tumor size was measured weekly with a caliper, and tumor volume was determined with the standard formula: L×W2×0.52, where L is the longest diameter and W the shortest diameter.

[5] = Pharmacokinetic analysis, plasma and tumor distribution; assay type: in vivo, nude mice
Description: FIGS. 14A-C. Skp2 inhibitor restricts cancer cell proliferation and triggers apoptosis in prostate tumor xenografts. The quantification results (FIG. 14A) and representative images (FIG. 14B) of histological analysis of Ki-67, TUNEL, Skp2 and HE staining in PC3-driven tumor xenografts. “Low” indicates tumor xenografts treated with 40 mg/kg, while “high” indicates the xenografts treated with 80 mg/kg of compound #25. Scale bar indicates 100 μm. (FIG. 14C) Pharmacokinetic analysis of compound #25. Plasma and tumor distribution following IP injection of compound #25 to nude mice bearing PC3-driven tumor xenograft are analyzed. Three mice were evaluated at each time point. Results are represented as mean values±S.D.

E3 ligase activity of Skp2 Trp127Ala mutant (Skp2 Trp127Ala mutant): abrogated E3 ligase activity
binding to WT Skp2 (WT Skp2): readily bound
FBW7-mediated ubiquitination (c-Jun, MCL-1) (FBW7): no appreciable effect
time of maximum levels in blood ([5]; IP administration): 1 h
share of compound maintained in blood ([5]; for 6 h): up to 70%
concentration at 24 h ([5]; nude, mouse, blood, intraperitoneal, 24 h after administration, read-out: terminal concentration in blood): 126 ± 48 ng/mL
Cmax ([5]; nude, mouse, blood, IP administration): 1430 ± 1180 ng/mL
concentration at 24 h ([5]; nude, mouse, tumor, intraperitoneal, 24 h after initial administration, read-out: concentration remaining in tumor tissues): ~1160 ng/mL
concentration at 1 h ([5]; nude, mouse, tumor, intraperitoneal, within 1 h, read-out: concentration in tumors): 4790 ± 1970 ng/g
Compound: CCc1cc2c(=O)c(-c3nc4ccccc4s3)coc2c(CN2CCCCC2)c1O [compound #25, 3-(1,3-benzothiazol-2-yl)-6-ethyl-7-hydroxy-8-(1-piperidinylmethyl)-4H-chromen-4-one]
E3 ligase activity of Skp2 Trp97Ala and Asp98Ala mutants [1]: failed to inhibit
ERK activation (ERK activation): no noticeable impact
cell viability (PC-3 cells; PC-3): potent effects on cell viability
viability upon Skp2 silencing (PC-3 cells; Skp2-knockdown prostate cancer cells): inhibitory effect is compromised
viability of control-knockdown cells (PC-3 cells; control-knockdown prostate cancer cells): potent inhibitory effect
cell viability with ectopic Skp2 Trp97Ala or Asp98Ala (PC-3 cells; ectopic expression of Skp2 mutants): attenuated the inhibitory effect
cell viability [2]: only slightly affected
cytotoxicity, lung cancer cells over lung fibroblast [3]: favorably triggered cytotoxicity in tumorigenic lung cancer cells over non-tumorigenic lung fibroblast
cell viability (H3255 (lung)): potent suppressive effect on viability
cell viability (H3299 (lung)): potent suppressive effect on viability
cellular senescence [4]: triggered cellular senescence
population of prostate CSCs (prostate CSCs): reduce the population of prostate CSCs in a dose dependent manner
population of prostate CSCs upon Skp2 silencing (prostate CSCs; Skp2 silencing): failed to do so
prostate tumor growth in vivo (PC3 xenograft tumors; IP injection): potent effect
p27, p21, apoptosis, Akt activation and Glut1 in prostate tumor tissues (PC3 xenograft tumors; histological analysis): induced expression of p27 and p21, apoptosis, and suppressed Akt activation and Glut1 expression
